Assay results as given in patent US20260055096A1, “AZOLE PESTICIDAL COMPOUNDS” (BASF SE, priority 2022, published 2026).

What was measured:
Assay type in all cases: in vivo
[1] = test system: Diamond back moth (Plutella xylostella); experiment: Example B.8: Action on diamond back moth (Plutella xylostella), egg and larval mortality on insect diet in microtiter plates; conditions: for egg and larval mortality: comparative experiment vs prior art compounds; for mortality at 800 ppm: Plutella xylostella, 120 h, egg and larval mortality after 5 days, read-out: mortality in comparison with untreated controls
Description: For evaluating control of diamond back moth (Plutella xylostella) the test unit consisted of 96-well-microtiter plates containing an insect diet and 15-25 P. xylostella eggs. The compounds or mixtures were formulated using a solution containing 75% water and 25% DMSO. Different concentrations of formulated compounds or mixtures were sprayed onto the insect diet at 5 μl, using a custom-built micro atomizer, at two replications. For experimental mixtures in these tests identical volumes of both mixing partners at the desired concentrations respectively, were mixed together. After application, microtiter plates were incubated at 28±1° C., 80±5% RH for 5 days. Egg and larval mortality was then visually assessed.

[2] = test system: Diamond back moth (Plutella xylostella); experiment: Example B.6: Action on diamond back moth (Plutella xylostella), cabbage leaf dip, 3rd instar larvae; conditions: foliar, 72 hours after treatment, read-out: mortality in comparison with untreated controls
Description: The active compound is dissolved at the desired concentration in a mixture of 1:1 (v/v) distilled water: acetone. Surfactant (Kinetic® HV) is added at a rate of 0.01% (v/v). The test solution is prepared at the day of use.
Leaves of cabbage were dipped in test solution and air-dried. Treated leaves were placed in petri dishes lined with moist filter paper and inoculated with ten 3rd instar larvae. Mortality was recorded 72 hours after treatment. Feeding damages were also recorded using a scale of 0-100%.

[3] = test system: boll weevil (Anthonomus grandis); experiment: Example B.3: Action on boll weevil (Anthonomus grandis), egg and larval mortality on insect diet; conditions: 120 h, egg and larval mortality after 5 days, read-out: mortality in comparison with untreated controls
Description: For evaluating control of boll weevil (Anthonomus grandis) the test unit consisted of 96-well-microtiter plates containing an insect diet and 5-10 A. grandis eggs.
The compounds were formulated using a solution containing 75% (v/v) water and 25% (v/v) DMSO. Different concentrations of formulated compounds were sprayed onto the insect diet at […], using a custom-built micro atomizer, at two replications.
After application, microtiter plates were incubated at about 25±1C and about 75±5% relative humidity for 5 days. Egg and larval mortality were then visually assessed.

[4] = test system: Orchid thrips (Dichromothrips corbetti); experiment: Example B.2: Action on orchid thrips (Dichromothrips corbetti), floral-immersion technique; conditions: 72 hours after treatment, read-out: mortality in comparison with untreated controls
Description: Dichromothrips corbetti adults used for bioassay were obtained from a colony maintained continuously under laboratory conditions. For testing purposes, the test compound is diluted in a 1:1 mixture of acetone:water (vol:vol), plus Kinetic® HV at a rate of 0.01% v/v.
Thrips potency of each compound was evaluated by using a floral-immersion technique. All petals of individual, intact orchid flowers were dipped into treatment solution and allowed to dryin Petri dishes. Treated petals were placed into individual re-sealable plastic along with about 20 adult thrips. All test arenas were held under continuous light and a temperature of about 28° C. for duration of the assay. After 3 days, the numbers of live thrips were counted on each petal. The percent mortality was recorded 72 hours after treatment.

[5] = test system: Southern armyworm (Spodoptera eridania), 2nd instar larvae; experiment: Example B.7: Action on southern armyworm (Spodoptera eridania), 2nd instar larvae on sprayed lima bean plants; conditions: 96 h, 4 days after treatment, read-out: mortality in comparison with untreated controls
Description: The active compounds were formulated by a Tecan liquid handler in 100% cyclohexanone as a 10,000-ppm solution supplied in tubes. The 10,000-ppm solution was serially diluted in 100% cyclohexanone to make interim solutions. These served as stock solutions for which final dilutions were made by the Tecan in 50% acetone:50% water (v/v) into 10 or 20 ml glass vials. A nonionic surfactant (Kinetic®) was included in the solution at a volume of 0.01% (v/v). The vials were then inserted into an automated electrostatic sprayer equipped with an atomizing nozzle for application to plants/insects.
Lima bean plants (variety Sieva) were grown 2 plants to a pot and selected for treatment at the 1st true leaf stage. Test solutions were sprayed onto the foliage by an automated electrostatic plant sprayer equipped with an atomizing spray nozzle. The plants were dried in the sprayer fume hood and then removed from the sprayer. Each pot was placed into perforated plastic bags with a zip closure. About 10 to 11 armyworm larvae were placed into the bag and the bags zipped closed. Test plants were maintained in a growth room at about 25° C. and about 20-40% relative humidity for 4 days, avoiding direct exposure to fluorescent light (24-hour photoperiod) to prevent trapping of heat inside the bags. Mortality and reduced feeding were assessed 4 days after treatment, compared to untreated control plants.

[6] = test system: tobacco budworm (Heliothis virescens); experiment: Example B.5: Action on tobacco budworm (Heliothis virescens), egg and larval mortality on insect diet; conditions: 120 h, egg and larval mortality after 5 days, read-out: mortality in comparison with untreated controls
Description: For evaluating control of tobacco budworm (Heliothis virescens) the test unit consisted of 96-well-microtiter plates containing an insect diet and 15-25 H. virescens eggs.
The compounds were formulated using a solution containing 75% v/v water and 25% v/v DMSO. Different concentrations of formulated compounds were sprayed onto the insect diet at 10 μl, using a custom-built micro atomizer, at two replications.
After application, microtiter plates were incubated at about 28±1C and about 80±5% relative humidity for 5 days. Egg and larval mortality were then visually assessed.

[7] = test system: yellow fever mosquito (Aedes aegypti); experiment: whole plant or invertebrate; conditions: 48 h, larval mortality after 2 days, read-out: mortality in comparison with untreated controls
Description: For evaluating control of yellow fever mosquito (Aedes aegypti) the test unit consisted of 96-well-microtiter plates containing 200 μl of tap water per well and 5-15 freshly hatched A. aegypti larvae.
The active compounds or mixtures were formulated using a solution containing 75% (v/v) water and 25% (v/v) DMSO. Different concentrations of formulated compounds or mixtures were sprayed onto the insect diet at 2.5 μl, using a custom-built micro atomizer, at two replications.
For experimental mixtures in these tests identical volumes of both mixing partners at the desired concentrations respectively, were mixed together.
After application, microtiter plates were incubated at 28 #1° C., 80 #5% RH for 2 days. Larval mortality was then visually assessed.

CC(C)c1ccccc1N1C(=O)CS/C1=N\C(=O)Nc1ccc(-c2nc(Nc3ccc(OC(F)(F)F)cc3)n(C)n2)cc1 [EP3974414 I-001, reference compound]
egg and larval mortality ([1]; 25 ppm): 0

CC(C)c1ccccc1N1C(=O)CS/C1=N\C(=O)Nc1ccc(-c2nc(Nc3cccc(OC(F)(F)F)c3)n(C)n2)cc1 [EP3974414 I-006, reference compound]
egg and larval mortality ([1]; 25 ppm): 38
egg and larval mortality ([1]; 100 ppm): 0

Cc1ccc(C(C)C)c(N2C(=O)CS/C2=N\C(=O)Nc2ccc(-c3nn(C)c(NC(=O)c4ccc(C(F)(F)F)cc4)c3C)cc2)c1 [Example C-1, N-[5-[4-[[(Z)-[3-(2-isopropyl-5-methyl-phenyl)-4-oxo-thiazolidin-2-ylidene]carbamoyl]amino]phenyl]-2,4-dimethyl-pyrazol-3-yl]-4-(trifluoromethyl)benzamide]
mortality at 300 ppm [2]: ≥ 75%
mortality at 800 ppm [3]: ≥ 75%
mortality at 300 ppm [4]: ≥ 75%
mortality at 300 ppm [5]: ≥ 75%
mortality at 800 ppm [6]: ≥ 75%
mortality at 800 ppm [7]: ≥ 50%

CC(=O)OCS/C(=N\C(=O)Nc1ccc(-c2nn(C)c(NC(=O)c3ccc(C(F)(F)F)cc3)c2C)cc1)Nc1cc(C)ccc1C(C)C [Example C-2, [(Z)-N′-[[4-[1,4-dimethyl-5-[[4-(trifluoromethyl)benzoyl]amino]pyrazol-3-yl]phenyl]carbamoyl]-N-(2-isopropyl-5-methyl-phenyl)carbamimidoyl]sulfanylmethyl acetate]
mortality at 300 ppm [2]: ≥ 75%
mortality at 800 ppm [3]: ≥ 75%
mortality at 300 ppm [4]: ≥ 75%
mortality at 300 ppm [5]: ≥ 75%
mortality at 800 ppm [6]: ≥ 75%
mortality at 800 ppm [7]: ≥ 50%

Cc1ccc(C(C)C)c(NC(=S)NC(=O)Nc2ccc(-c3nn(C)c(NC(=O)c4ccc(C(F)(F)F)cc4)c3C)cc2)c1 [Example C-3, N-[5-[4-[(2-isopropyl-5-methyl-phenyl)carbamothioylcarbamoylamino]phenyl]-2,4-dimethyl-pyrazol-3-yl]-4-(trifluoromethyl)benzamide]
mortality at 300 ppm [2]: ≥ 75%
mortality at 800 ppm [3]: ≥ 75%
mortality at 300 ppm [4]: ≥ 75%
mortality at 300 ppm [5]: ≥ 75%
mortality at 800 ppm [6]: ≥ 75%
mortality at 800 ppm [7]: ≥ 50%

Cc1ccc(C(C)C)c(N2C(=O)CS/C2=N\C(=O)Nc2ccc(-c3nn(C)c(N(C)C(=O)c4ccc(C(F)(F)F)cc4)c3C)cc2)c1 [Example C-4, N-[5-[4-[[(Z)-[3-(2-isopropyl-5-methyl-phenyl)-4-oxo-thiazolidin-2-ylidene]carbamoyl]amino]phenyl]-2,4-dimethyl-pyrazol-3-yl]-N-methyl-4-(trifluoromethyl)benzamide]
mortality at 300 ppm [2]: ≥ 75%
mortality at 800 ppm [3]: ≥ 75%
mortality at 300 ppm [4]: ≥ 75%
mortality at 300 ppm [5]: ≥ 75%
mortality at 800 ppm [6]: ≥ 75%
mortality at 800 ppm [7]: ≥ 50%

Cc1ccc(C(C)C)c(N2C(=O)CS/C2=N\C(=O)Nc2ccc(-c3nc(NC(=O)c4ccc(OC(F)(F)F)cc4)n(C)n3)cc2)c1 [Example C-5, N-[5-[4-[[(Z)-[3-(2-isopropyl-5-methyl-phenyl)-4-oxo-thiazolidin-2-ylidene]carbamoyl]amino]phenyl]-2-methyl-1,2,4-triazol-3-yl]-4-(trifluoromethoxy)benzamide]
mortality at 300 ppm [2]: ≥ 75%
mortality at 800 ppm [3]: ≥ 75%
mortality at 300 ppm [4]: ≥ 75%
mortality at 300 ppm [5]: ≥ 75%
mortality at 800 ppm [6]: ≥ 75%

Cc1ccc(C(C)C)c(N2C(=O)CS/C2=N\C(=O)Nc2ccc(-c3nn(C)c(NC(=O)c4ccc(OC(F)(F)F)cc4)c3C#N)cc2)c1 [Example C-7, N-[4-cyano-5-[4-[[(Z)-[3-(2-isopropyl-5-methyl-phenyl)-4-oxo-thiazolidin-2-ylidene]carbamoyl]amino]phenyl]-2-methyl-pyrazol-3-yl]-4-(trifluoromethoxy)benzamide]
mortality at 300 ppm [2]: ≥ 75%
mortality at 800 ppm [3]: ≥ 75%
mortality at 300 ppm [4]: ≥ 75%
mortality at 300 ppm [5]: ≥ 75%
mortality at 800 ppm [6]: ≥ 75%
mortality at 800 ppm [7]: ≥ 50%

Cc1ccc(C(C)C)c(N2C(=O)CS/C2=N\C(=O)Nc2ccc(-c3nn(C)c(NC(=O)c4ccc(OC(F)(F)F)cc4)c3C)cc2Cl)c1 [Example C-8, N-[5-[3-chloro-4-[[(Z)-[3-(2-isopropyl-5-methyl-phenyl)-4-oxo-thiazolidin-2-ylidene]carbamoyl]amino]phenyl]-2,4-dimethyl-pyrazol-3-yl]-4-(trifluoromethoxy)benzamide]
mortality at 300 ppm [2]: ≥ 75%
mortality at 800 ppm [3]: ≥ 75%
mortality at 300 ppm [4]: ≥ 75%
mortality at 300 ppm [5]: ≥ 75%
mortality at 800 ppm [6]: ≥ 75%
mortality at 800 ppm [7]: ≥ 50%

Cc1ccc(C(C)C)c(N2C(=O)CS/C2=N\C(=O)N(C)c2ccc(-c3nn(C)c(NC(=O)c4ccc(OC(F)(F)F)cc4)c3C)cc2)c1 [Example C-112, N-[5-[4-[[(Z)-[3-(2-isopropyl-5-methyl-phenyl)-4-oxo-thiazolidin-2-ylidene]carbamoyl]-methyl-amino]phenyl]-2,4-dimethyl-pyrazol-3-yl]-4-(trifluoromethoxy)benzamide]
mortality at 800 ppm [3]: ≥ 75%
mortality at 800 ppm [6]: ≥ 75%
mortality at 800 ppm [1]: ≥ 75%
mortality at 800 ppm [7]: ≥ 50%

CC(C)c1ccccc1N1C(=O)CS/C1=N\C(=O)Nc1ccc(-c2nc(NC(=O)c3ccc(OC(F)(F)F)cc3)n(C)n2)cc1 [Example C-119]
mortality at 800 ppm [3]: ≥ 75%
mortality at 300 ppm [5]: ≥ 75%
egg and larval mortality ([1]; 25 ppm): 75
mortality at 800 ppm [1]: ≥ 75%

CC(C)c1ccccc1N1C(=O)CS/C1=N\C(=O)Nc1ccc(-c2nc(NC(=O)c3cccc(OC(F)(F)F)c3)n(C)n2)cc1 [Example C-126]
mortality at 800 ppm [3]: ≥ 75%
mortality at 300 ppm [5]: ≥ 75%
mortality at 800 ppm [6]: ≥ 75%
egg and larval mortality ([1]; 25 ppm): 75
egg and larval mortality ([1]; 100 ppm): 100
mortality at 800 ppm [1]: ≥ 75%
mortality at 800 ppm [7]: ≥ 50%
